Measured values from the CheMixHub viscosity set.
± gives the uncertainty stated by the source.

Assay: xn = mol fraction of the nth substance listed

CCOC(=O)[C@@H](O)[C@H](O)C(=O)OCC + CC(C)CO
viscosity [mPa·s], 101 kPa
Details | x1 = 0.1 | x1 = 0.2 | x1 = 0.3001 | x1 = 0.3999 | x1 = 0.5 | x1 = 0.6001 | x1 = 0.6989 | x1 = 0.7998 | x1 = 0.8994
293.15 K | 5.103 ± 0.041 | 7.263 ± 0.059 | 10.49 ± 0.086 | 15.86 ± 0.13 | 24.25 ± 0.2 | 34.35 ± 0.29 | 50.55 ± 0.42 | 88.25 ± 0.97 | 140.9 ± 2.2
298.15 K | 4.28 ± 0.035 | 5.98 ± 0.049 | 8.485 ± 0.07 | 12.38 ± 0.1 | 18.34 ± 0.15 | 25.34 ± 0.22 | 36.11 ± 0.31 | 59.79 ± 0.52 | 91.12 ± 1
303.15 K | 3.601 ± 0.03 | 4.928 ± 0.041 | 6.848 ± 0.056 | 9.831 ± 0.082 | 14.09 ± 0.12 | 19.07 ± 0.16 | 26.5 ± 0.23 | 42.09 ± 0.37 | 62.16 ± 0.56
308.15 K | 3.052 ± 0.025 | 4.111 ± 0.034 | 5.611 ± 0.046 | 7.889 ± 0.066 | 11.06 ± 0.093 | 14.71 ± 0.12 | 19.99 ± 0.17 | 30.63 ± 0.27 | 43.93 ± 0.4
313.15 K | 2.607 ± 0.022 | 3.444 ± 0.029 | 4.609 ± 0.038 | 6.39 ± 0.053 | 8.797 ± 0.074 | 11.53 ± 0.098 | 15.38 ± 0.13 | 22.88 ± 0.2 | 31.96 ± 0.29
318.15 K | 2.249 ± 0.019 | 2.956 ± 0.025 | 3.912 ± 0.033 | 5.322 ± 0.045 | 7.201 ± 0.061 | 9.298 ± 0.08 | 12.19 ± 0.11 | 17.64 ± 0.16 | 24.09 ± 0.22
323.15 K | 1.973 ± 0.017 | 2.567 ± 0.022 | 3.358 ± 0.028 | 4.497 ± 0.038 | 5.991 ± 0.051 | 7.637 ± 0.066 | 9.865 ± 0.086 | 13.94 ± 0.12 | 18.67 ± 0.17

Cc1cccc([N+](=O)[O-])c1 + Cc1cccc(C)c1
308.15 K, 101.33 kPa
Details | viscosity [mPa·s]
x2 = 0.1017 | 1.33 ± 0.008
x2 = 0.2062 | 1.133 ± 0.007
x2 = 0.3032 | 1.014 ± 0.007
x2 = 0.4055 | 0.926 ± 0.006
x2 = 0.5001 | 0.861 ± 0.006
x2 = 0.6028 | 0.785 ± 0.005
x2 = 0.6999 | 0.72 ± 0.005
x2 = 0.8043 | 0.653 ± 0.004
x2 = 0.9007 | 0.59 ± 0.004

CCOC(=O)c1ccccc1 + CCCCCO
viscosity [mPa·s], 101.3 kPa
Details | x1 = 0.0771 | x1 = 0.1582 | x1 = 0.2437 | x1 = 0.3339 | x1 = 0.4292 | x1 = 0.53 | x1 = 0.6369 | x1 = 0.7504 | x1 = 0.8712
303 K | 2.883 ± 0.29 | 2.764 ± 0.28 | 2.656 ± 0.27 | 2.533 ± 0.25 | 2.404 ± 0.24 | 2.273 ± 0.23 | 2.135 ± 0.21 | 1.985 ± 0.2 | 1.865 ± 0.19
308 K | 2.541 ± 0.26 | 2.449 ± 0.25 | 2.349 ± 0.24 | 2.25 ± 0.23 | 2.154 ± 0.22 | 2.031 ± 0.2 | 1.92 ± 0.19 | 1.8 ± 0.18 | 1.691 ± 0.17
313 K | 2.224 ± 0.22 | 2.139 ± 0.21 | 2.051 ± 0.21 | 1.962 ± 0.2 | 1.875 ± 0.19 | 1.787 ± 0.18 | 1.701 ± 0.17 | 1.615 ± 0.16 | 1.528 ± 0.15
318 K | 2.005 ± 0.2 | 1.931 ± 0.19 | 1.86 ± 0.19 | 1.789 ± 0.18 | 1.723 ± 0.17 | 1.648 ± 0.17 | 1.56 ± 0.16 | 1.485 ± 0.15 | 1.41 ± 0.14
323 K | 1.798 ± 0.18 | 1.739 ± 0.17 | 1.68 ± 0.17 | 1.626 ± 0.16 | 1.569 ± 0.16 | 1.505 ± 0.15 | 1.439 ± 0.14 | 1.376 ± 0.14 | 1.313 ± 0.13

CC(=O)[O-].CCCC[NH2+]CCO + CCCCn1cc[n+](C)c1.COP(=O)([O-])OC
viscosity [mPa·s], 101 kPa
Details | x1 = 0.1014 | x1 = 0.2979 | x1 = 0.4067 | x1 = 0.4989 | x1 = 0.8011 | x1 = 0.8913
293.15 K | 730.5 ± 28 | – | – | 502.5 ± 17 | 741.5 ± 30 | –
298.15 K | – | 392.5 ± 12 | 359.5 ± 11 | – | – | 632.5 ± 25

CCOC(=O)c1ccccc1 + CC(=O)O
298.15 K, 101 kPa
Details | viscosity [mPa·s]
x2 = 0.1041 | 1.948 ± 0.051
x2 = 0.2129 | 1.874 ± 0.049
x2 = 0.3045 | 1.797 ± 0.047
x2 = 0.3882 | 1.727 ± 0.046
x2 = 0.475 | 1.651 ± 0.044
x2 = 0.5822 | 1.538 ± 0.041
x2 = 0.6826 | 1.446 ± 0.038
x2 = 0.7956 | 1.322 ± 0.035
x2 = 0.9132 | 1.202 ± 0.032

Cc1ccccc1[N+](=O)[O-] + Cc1ccccc1C
308.15 K, 101.33 kPa
Details | viscosity [mPa·s]
x2 = 0.1023 | 1.548 ± 0.01
x2 = 0.2014 | 1.392 ± 0.009
x2 = 0.3006 | 1.262 ± 0.008
x2 = 0.4018 | 1.143 ± 0.007
x2 = 0.5041 | 1.027 ± 0.007
x2 = 0.6102 | 0.928 ± 0.006
x2 = 0.7028 | 0.85 ± 0.006
x2 = 0.8056 | 0.773 ± 0.005
x2 = 0.9008 | 0.709 ± 0.005

c1cscn1 + ClC(Cl)(Cl)Cl
298.15 K, 101 kPa
Details | viscosity [mPa·s]
x1 = 0.1198 | 0.9186 ± 0.024
x1 = 0.2066 | 0.9327 ± 0.025
x1 = 0.2139 | 0.933 ± 0.025
x1 = 0.2899 | 0.9459 ± 0.025
x1 = 0.3525 | 0.9561 ± 0.025
x1 = 0.4862 | 0.9809 ± 0.026
x1 = 0.592 | 0.994 ± 0.026
x1 = 0.689 | 1.007 ± 0.027
x1 = 0.7728 | 1.01 ± 0.027
x1 = 0.8194 | 1.011 ± 0.027
x1 = 0.8719 | 1.011 ± 0.027
x1 = 0.9315 | 1.006 ± 0.027

Cc1ccccc1[N+](=O)[O-] + CN1CCC[C@H]1c1cccnc1
viscosity [mPa·s], 101.33 kPa
Details | x2 = 0.1058 | x2 = 0.2027 | x2 = 0.2928 | x2 = 0.4027 | x2 = 0.4939 | x2 = 0.5968 | x2 = 0.6894 | x2 = 0.7864 | x2 = 0.8909
298.15 K | 2.229 ± 0.022 | 2.424 ± 0.024 | 2.583 ± 0.026 | 2.775 ± 0.028 | 3.008 ± 0.03 | 3.117 ± 0.031 | 3.335 ± 0.033 | 3.47 ± 0.035 | 3.697 ± 0.037
323.15 K | 1.405 ± 0.014 | 1.481 ± 0.015 | 1.557 ± 0.016 | 1.625 ± 0.016 | 1.7 ± 0.017 | 1.764 ± 0.018 | 1.909 ± 0.019 | 1.919 ± 0.019 | 2.002 ± 0.02

CCCCCl + CC(C)O
298.15 K, 101 kPa
Details | viscosity [mPa·s]
x2 = 0.1 | 0.438 ± 0.012
x2 = 0.1661 | 0.468 ± 0.013
x2 = 0.225 | 0.47 ± 0.013
x2 = 0.2891 | 0.493 ± 0.014
x2 = 0.35 | 0.522 ± 0.014
x2 = 0.4295 | 0.579 ± 0.016
x2 = 0.5105 | 0.642 ± 0.017
x2 = 0.5479 | 0.675 ± 0.018
x2 = 0.6603 | 0.809 ± 0.021
x2 = 0.7645 | 1.044 ± 0.027
x2 = 0.8538 | 1.338 ± 0.035
x2 = 0.92 | 1.615 ± 0.042

CC1CCCCC1 + CC(C)O
viscosity [mPa·s], 100 kPa
Details | x1 = 0.081 | x1 = 0.1601 | x1 = 0.2401 | x1 = 0.35 | x1 = 0.44 | x1 = 0.5602 | x1 = 0.65 | x1 = 0.7401 | x1 = 0.8501 | x1 = 0.9403
293.15 K | 1.88 ± 0.23 | 1.47 ± 0.18 | 1.17 ± 0.14 | 0.89 ± 0.11 | 0.78 ± 0.09 | 0.72 ± 0.09 | 0.73 ± 0.09 | 0.75 ± 0.09 | 0.77 ± 0.09 | 0.76 ± 0.09
298.15 K | 1.65 ± 0.2 | 1.33 ± 0.16 | 1.08 ± 0.13 | 0.87 ± 0.1 | 0.76 ± 0.09 | 0.71 ± 0.09 | 0.7 ± 0.1 | 0.7 ± 0.1 | – | 0.71 ± 0.09
303.15 K | – | 1.18 ± 0.14 | 0.98 ± 0.12 | 0.81 ± 0.1 | 0.73 ± 0.09 | 0.7 ± 0.1 | 0.69 ± 0.08 | 0.68 ± 0.08 | 0.68 ± 0.08 | 0.67 ± 0.08
308.15 K | 1.26 ± 0.15 | 1.05 ± 0.13 | 0.89 ± 0.11 | 0.74 ± 0.09 | 0.67 ± 0.08 | 0.64 ± 0.08 | 0.63 ± 0.08 | 0.63 ± 0.08 | 0.64 ± 0.08 | 0.62 ± 0.07
313.15 K | 1.1 ± 0.13 | 0.92 ± 0.11 | 0.79 ± 0.1 | 0.65 ± 0.08 | 0.6 ± 0.1 | 0.58 ± 0.07 | 0.57 ± 0.07 | 0.58 ± 0.07 | 0.59 ± 0.07 | 0.6 ± 0.07
318.15 K | 0.97 ± 0.12 | 0.82 ± 0.1 | 0.7 ± 0.08 | 0.6 ± 0.07 | 0.55 ± 0.07 | 0.54 ± 0.07 | 0.54 ± 0.07 | 0.55 ± 0.07 | 0.56 ± 0.07 | 0.55 ± 0.07
323.15 K | 0.84 ± 0.1 | 0.69 ± 0.08 | 0.58 ± 0.07 | 0.49 ± 0.06 | 0.46 ± 0.06 | 0.46 ± 0.06 | 0.47 ± 0.06 | 0.49 ± 0.06 | 0.51 ± 0.06 | 0.52 ± 0.06
